Laboratory results taken from PubChem BioAssay AID1845209 (Molecular Pharmacology Branch, DTP, NCI, 2023).

System: NCI-H211 tumor spheroids, viability percent test/control
Assay: Anticancer human tumor NCI-H211 cell line growth inhibition;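 also: spheroids exposed to agents for seven days before readout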
Conditions: spheroids with HUVEC and MSC; for IC50: curve of first compound; for viability, T/C: stronger effect = lower value
Summary of the method: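 Complex spheroids of malignant cells with endothelial cells and mesenchymal stem cells; agents alone or combined, from near clinical Cmax (or 10 microM if unknown) down in half-log steps, 0.25% DMSO final.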

[1] = second compound 1 µM, first compound 0.0316 µM
[2] = second compound 1 µM, first compound 0.1 µM
[3] = second compound 1 µM, first compound 0.316 µM
[4] = second compound 1 µM, first compound 1 µM
[5] = second compound 1 µM, first compound 3.16 µM
[6] = second compound 1 µM, first compound 10 µM
[7] = second compound 3.16 µM, first compound 0.0316 µM
[8] = second compound 3.16 µM, first compound 0.1 µM
[9] = second compound 3.16 µM, first compound 0.316 µM
[10] = second compound 3.16 µM, first compound 1 µM
[11] = second compound 3.16 µM, first compound 3.16 µM
[12] = second compound 3.16 µM, first compound 10 µM
[13] = second compound 10 µM, first compound 0.0316 µM
[14] = second compound 10 µM, first compound 0.1 µM
[15] = second compound 10 µM, first compound 0.316 µM
[16] = second compound 10 µM, first compound 1 µM
[17] = second compound 10 µM, first compound 3.16 µM
[18] = second compound 10 µM, first compound 10 µM
[19] = second compound 31.6 µM, first compound 0.0316 µM
[20] = second compound 31.6 µM, first compound 0.1 µM
[21] = second compound 31.6 µM, first compound 0.316 µM
[22] = second compound 31.6 µM, first compound 1 µM
[23] = second compound 31.6 µM, first compound 3.16 µM
[24] = second compound 31.6 µM, first compound 10 µM
[25] = second compound 100 µM, first compound 0.0316 µM
[26] = second compound 100 µM, first compound 0.1 µM
[27] = second compound 100 µM, first compound 0.316 µM
[28] = second compound 100 µM, first compound 1 µM
[29] = second compound 100 µM, first compound 3.16 µM
[30] = second compound 100 µM, first compound 10 µM

Structure (SMILES) | IC50 (second compound 1 µM) | IC50 (second compound 3.16 µM) | IC50 (second compound 10 µM) | IC50 (second compound 31.6 µM) | IC50 (second compound 100 µM) | viability, T/C [1] | viability, T/C [2] | viability, T/C [3] | viability, T/C [4] | viability, T/C [5] | viability, T/C [6] | viability, T/C [7] | viability, T/C [8] | viability, T/C [9] | viability, T/C [10] | viability, T/C [11] | viability, T/C [12] | viability, T/C [13] | viability, T/C [14] | viability, T/C [15] | further results
CC(C)n1c(=O)n(C)c2cnc3cc(F)c(-c4ccc(OCCCN5CCCCC5)nc4)cc3c21 + Cn1nnc2c(C(N)=O)ncn2c1=O | 0.662 µM | 0.781 µM | 0.118 µM | < 0.0316 µM | < 0.0316 µM | 70.8% | 69.4% | 54% | 48.1% | 28.4% | 9.99% | 66% | 66.1% | 63.8% | 42.6% | 30.7% | 8.69% | 61.6% | 52.2% | 35.7% | viability, T/C [16]: 34.7%; viability, T/C [17]: 20.3%; viability, T/C [18]: 4.95%; viability, T/C [19]: 19.9%; viability, T/C [20]: 16.5%; viability, T/C [21]: 10.7%; viability, T/C [22]: 8.57%; viability, T/C [23]: 5.7%; viability, T/C [24]: 0.75%; viability, T/C [25]: 4.09%; viability, T/C [26]: 3.62%; viability, T/C [27]: 2.44%; viability, T/C [28]: 1.96%; viability, T/C [29]: 1.15%; viability, T/C [30]: 0.49%
CC1COCCN1c1cc(-c2ccnn2C)c2ccnc(-c3ccn[nH]3)c2n1 (stereo not given) + Cn1nnc2c(C(N)=O)ncn2c1=O | < 0.0316 µM | < 0.0316 µM | < 0.0316 µM | < 0.0316 µM | < 0.0316 µM | 11.4% | 1.45% | 0.83% | 0.74% | 0.72% | 1.43% | 9.67% | 1.34% | 0.86% | 0.68% | 0.72% | 1.44% | 6.59% | 0.88% | 0.79% | viability, T/C [16]: 0.62%; viability, T/C [17]: 0.67%; viability, T/C [18]: 1.16%; viability, T/C [19]: 1.39%; viability, T/C [20]: 1.09%; viability, T/C [21]: 0.74%; viability, T/C [22]: 0.59%; viability, T/C [23]: 0.66%; viability, T/C [24]: 1.11%; viability, T/C [25]: 1.19%; viability, T/C [26]: 1.1%; viability, T/C [27]: 0.95%; viability, T/C [28]: 0.67%; viability, T/C [29]: 0.65%; viability, T/C [30]: 1.12%
COc1cc(C)[nH]c(=O)c1CN1CCc2c(Cl)cc(C(OC)C3COC3)c(Cl)c2C1=O (stereo not given) + Cn1nnc2c(C(N)=O)ncn2c1=O | > 10 µM | > 10 µM | > 10 µM | 1.33 µM | < 0.0316 µM | 92.7% | 90.4% | 90.6% | 82.7% | 81.3% | 72.8% | 92.6% | 99.3% | 90% | 82.3% | 70.2% | 81.5% | 99.8% | 98.7% | 86.6% | viability, T/C [16]: 86.5%; viability, T/C [17]: 70.2%; viability, T/C [18]: 56.1%; viability, T/C [19]: 56.4%; viability, T/C [20]: 54.6%; viability, T/C [21]: 59.6%; viability, T/C [22]: 56.3%; viability, T/C [23]: 30.8%; viability, T/C [24]: 30.8%; viability, T/C [25]: 31.5%; viability, T/C [26]: 33.4%; viability, T/C [27]: 19.6%; viability, T/C [28]: 13.8%; viability, T/C [29]: 12.6%; viability, T/C [30]: 12%
COc1ccc([C@@H](O)c2cc(-c3ncnc4cc(N5CCOCC5)ccc34)c(F)cc2Cl)nn1 + Cn1nnc2c(C(N)=O)ncn2c1=O | 6.28 µM | 5.81 µM | 3.89 µM | < 0.0316 µM | < 0.0316 µM | 102% | 102% | 90.3% | 74.5% | 85.3% | 31.5% | 88.9% | 100% | 105% | 69.4% | 73.2% | 33.3% | 99% | 88.6% | 84% | viability, T/C [16]: 71.9%; viability, T/C [17]: 60.7%; viability, T/C [18]: 21.7%; viability, T/C [19]: 41.1%; viability, T/C [20]: 38.5%; viability, T/C [21]: 35.1%; viability, T/C [22]: 34.6%; viability, T/C [23]: 21.1%; viability, T/C [24]: 7.82%; viability, T/C [25]: 21.6%; viability, T/C [26]: 19.3%; viability, T/C [27]: 15.9%; viability, T/C [28]: 8.08%; viability, T/C [29]: 5.69%; viability, T/C [30]: 2.16%
Cc1cc(C)c(CNC(=O)c2cc(-c3ccc(CN4CCOCC4)cc3)cc3c2cnn3C2CCCC2)c(=O)[nH]1 + Cn1nnc2c(C(N)=O)ncn2c1=O | 5.6 µM | 8.08 µM | 2.06 µM | 0.081 µM | < 0.0316 µM | 92.3% | 81.4% | 70% | 70.6% | 72.7% | 32.3% | 95.3% | 94.7% | 84% | 86.7% | 71.3% | 45% | 95.4% | 93.2% | 66.7% | viability, T/C [16]: 68.7%; viability, T/C [17]: 37.9%; viability, T/C [18]: 36.8%; viability, T/C [19]: 58.4%; viability, T/C [20]: 47.4%; viability, T/C [21]: 35.1%; viability, T/C [22]: 33.7%; viability, T/C [23]: 10.6%; viability, T/C [24]: 19.9%; viability, T/C [25]: 33.6%; viability, T/C [26]: 21.7%; viability, T/C [27]: 18.9%; viability, T/C [28]: 16.3%; viability, T/C [29]: 10.4%; viability, T/C [30]: 7.54%
[2H]c1nc(C)nc([2H])c1-c1cc(NC[C@@H](C)c2cccc3c(C(=O)NC)ccnc23)ncn1 + Cn1nnc2c(C(N)=O)ncn2c1=O | > 10 µM | > 10 µM | > 10 µM | 3.3 µM | < 0.0316 µM | 97.9% | 96.7% | 93.5% | 95% | 101% | 88.9% | 108% | 113% | 98.7% | 99.7% | 95.3% | 103% | 106% | 105% | 85.5% | viability, T/C [16]: 103%; viability, T/C [17]: 65%; viability, T/C [18]: 82.6%; viability, T/C [19]: 61.5%; viability, T/C [20]: 53.1%; viability, T/C [21]: 49.8%; viability, T/C [22]: 47.5%; viability, T/C [23]: 51.6%; viability, T/C [24]: 18.4%; viability, T/C [25]: 33%; viability, T/C [26]: 21.6%; viability, T/C [27]: 15.9%; viability, T/C [28]: 13.6%; viability, T/C [29]: 11.7%; viability, T/C [30]: 8.11%
